From patent US12344610B2, “APOL1 inhibitors and methods of use” (Maze Therapeutics, Inc., priority 2022, dated 2025) come the findings set out here.

Broadly, the EC50 is the concentration needed to bring the measured effect to its halfway point. Low readings indicate an effect from little substance, high ones a need for much substance.

Where only a bound is given, the exact number is not on record here.

The test system of one test is human immortalized podocytes inducibly expressing APOL1 G2. Kind of test: APOL1 G2 podocyte cell rescue assay (Example B4). In kind it is cell-based. As to conditions: Homo sapiens, differentiated human podocytes, doxycycline-induced APOL1 G2, CellTiter-Glo; geometric mean of at least 2 runs; † = single run. The method, boiled down:
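Differentiated hTERT-immortalized podocytes (clone D10) with doxycycline-inducible C-terminally HiBiT-tagged APOL1 G2, 6,000 cells/well, treated with doxycycline plus 8-point 3-fold compound series (0.4% DMSO) for 95 h at 37 °C. Viability by CellTiter-Glo luminescence; EC50 as geometric mean of ≥2 runs, each in duplicate.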
In general terms: Cellular ATP, detected with luciferase, serves as a proxy for viable cell number.
Turning to `CS(=O)(=O)C1(c2ncc(OCCN3CCC4(CC3)C(=O)Nc3ccc(C(F)F)cc34)cn2)CC1` [Compound 5, 5-(difluoromethyl)-1′-(2-{[2-(1-methanesulfonylcyclopropyl)pyrimidin-5-yl]oxy}ethyl)-1,2-dihydrospiro[indole-3,4′-piperidin]-2-one], the EC50 was > 0.33 µM.
On the same count and under the same terms, the result for `CS(=O)(=O)C1(c2ncc(OCCN3CCC4(CC3)C(=O)Nc3ccc(OC(F)F)cc34)cn2)CC1` [Compound 6, 5-(difluoromethoxy)-1′-(2-{[2-(1-methanesulfonylcyclopropyl)pyrimidin-5-yl]oxy}ethyl)-1,2-dihydrospiro[indole-3,4′-piperidin]-2-one] reads 0.0477 µM.
Same read-out and setting: under `O=C1CCc2cc(OCCN3CCC4(CC3)C(=O)Nc3ccc(Cl)cc34)cnc2N1[C@H]1C[C@H](O)C1` [Compound 267, 5-chloro-1′-[2-({7-oxo-8-[(trans)-3-hydroxycyclobutyl]-5,6,7,8-tetrahydro-1,8-naphthyridin-3-yl}oxy)ethyl]-1,2-dihydrospiro[indole-3,4′-piperidin]-2-one] stands 0.00663 µM.
On the same count and under the same terms, under `C[C@]1(O)C[C@@H](n2c(=O)cnc3cc(OCCN4CCC5(CC4)C(=O)Nc4ccc(Cl)cc45)cnc32)C1` [Compound 358, 5-chloro-1′-[2-({3-oxo-4-[(cis)-3-hydroxy-3-methylcyclobutyl]-3H,4H-pyrido[2,3-b]pyrazin-7-yl}oxy)ethyl]-1,2-dihydrospiro[indole-3,4′-piperidin]-2-one] stands 0.024 µM; under `CC1(O)CN(c2ncc(OCCN3CCC4(CC3)C(=O)Nc3ccc(C(F)F)cc34)cn2)C1` [Compound 395, 5-(difluoromethyl)-1′-(2-{[2-(3-hydroxy-3-methylazetidin-1-yl)pyrimidin-5-yl]oxy}ethyl)-1,2-dihydrospiro[indole-3,4′-piperidin]-2-one], 0.137 µM.

The test is the same for the next values; noted with them: differentiated human podocytes, doxycycline-induced APOL1 G2, CellTiter-Glo; geometric mean of at least 2 runs; † = single run.
Consider `CC(c1ncc(OCCN2CCC3(CC2)C(=O)Nc2ccc(Cl)cc23)cn1)S(C)(=O)=O` (single isomer, unassigned) [Compound 2, 5-chloro-1′-[2-({2-[(1S) or (1R)-1-methanesulfonylethyl]pyrimidin-5-yl}oxy)ethyl]-1,2-dihydrospiro[indole-3,4′-piperidin]-2-one], for which the midpoint of the response, the EC50, lay at 0.0107 µM.
On the same count and under the same terms, under `CC(c1ncc(OCCN2CCC3(CC2)C(=O)Nc2ccc(Cl)cc23)cn1)S(C)(=O)=O` (single isomer, unassigned) [Compound 3, 5-chloro-1′-[2-({2-[(1R) or (1S)-1-methanesulfonylethyl]pyrimidin-5-yl}oxy)ethyl]-1,2-dihydrospiro[indole-3,4′-piperidin]-2-one] stands 0.0235 µM.
Same read-out and setting: the result for `CC(O)c1ncc(OCCN2CCC3(CC2)C(=O)Nc2ccc(C#N)cc23)cc1C(F)(F)F` (single isomer, unassigned) [Compound 376, 1′-[2-({6-[(1S) or (1R)-1-hydroxyethyl]-5-(trifluoromethyl)pyridin-3-yl}oxy)ethyl]-2-oxo-1,2-dihydrospiro[indole-3,4′-piperidine]-5-carbonitrile] reads 0.00621 µM; that for `CC(O)c1ncc(OCCN2CCC3(CC2)C(=O)Nc2ccc(C#N)cc23)cc1C(F)(F)F` (single isomer, unassigned) [Compound 377, 1′-[2-({6-(1S) or (1R)-1-hydroxyethyl]-5-(trifluoromethyl)pyridin-3-yl}oxy)ethyl]-2-oxo-1,2-dihydrospiro[indole-3,4′-piperidine]-5-carbonitrile], 0.0244 µM.
On the same count and under the same terms, the result for `CS(=O)(=O)C1(c2ccc(OCCN3CCC4(CC3)C(=O)Nc3ccc(Cl)cc34)cc2)CC(O)C1` (stereo not drawn) [Compound 269, 5-chloro-1′-(2-{4-[(cis) or (trans)-3-hydroxy-1-methanesulfonylcyclobutyl]phenoxy}ethyl)-1,2-dihydrospiro[indole-3,4′-piperidin]-2-one] reads 0.0304 µM; that for `CS(=O)(=O)C1(c2ccc(OCCN3CCC4(CC3)C(=O)Nc3ccc(Cl)cc34)cc2)CC(O)C1` (stereo not drawn) [Compound 270, 5-chloro-1′-(2-{4-[(trans) or (cis)-3-hydroxy-1-methanesulfonylcyclobutyl]phenoxy}ethyl)-1,2-dihydrospiro[indole-3,4′-piperidin]-2-one], 0.00292 µM.
